From PMC7424068, “Design, Synthesis, and Biological Evaluation of Novel Thiazolidinone-Containing Quinoxaline-1,4-di-N-oxides as Antimycobacterial and Antifungal Agents” (Frontiers in Chemistry, 2020)
Values after ≈ are worked out from the molar mass of the structure shown. Read-outs that look alike come from different tables or passages of the source.

Experiments:
Mtb H37Rv (ATCC27294) = assay: Antimycobacterial activity, microplate Alamar blue assay (MABA); format: cell-based, Mycobacterium tuberculosis
A. fumigatus (3.5352) = assay: Antifungal activity, broth microdilution; format: cell-based; settings: Aspergillus fumigatus; A. fumigatus 3.5352; read-out: MIC
Experimental: (§1) All synthesized compounds and the positive control drugs amphotericin B and ketoconazole were tested for their in vitro antifungal activity. Antifungal activity was evaluated against four fungi, C. albicans (ATCC90028), C. tropicalis (ATCC7349), A. fumigatus (3.5352), and C. neoformans (2.3201), by broth microdilution according to the protocols from the NCCLS (Jiang et al., [2014]). Briefly, all tested compounds were dissolved in DMSO, and the solutions were diluted with fresh broth medium. All of the fungi-seeded broth (1 × 10^5 colony-forming units [CFU]/mL) were prepared in RPMI 1640 medium and added into the serially diluted drug solution. The tubes were incubated at 28°C, and the MIC (μg/mL) was recorded 72–96 h post-incubation. Broth control (without fungi), growth controls (with fungi and without drug), solvent (DMSO) control, and drug control for both test drugs and standard drugs were set under identical conditions. The minimum drug concentration in the tubes in which no apparent growth of the organism was observed represented the MIC of the compounds.

C. tropicalis (ATCC7349) = assay: Antifungal activity, broth microdilution; format: cell-based; settings: Candida tropicalis, C. tropicalis ATCC 7349, read-out: MIC
Experimental: as §1

C. neoformans (2.3201) = assay: Antifungal activity, broth microdilution; format: cell-based; settings: Cryptococcus neoformans; C. neoformans 2.3201; read-out: MIC
Experimental: as §1

C. albicans (ATCC90028) = assay: Antifungal activity, broth microdilution; format: cell-based, Candida albicans; settings: Candida albicans ATCC 90028, read-out: MIC
Experimental: as §1

[1] = Mycobacterium tuberculosis, Mtb H37Rv, MABA assay, read-out: MIC
[2] = Mycobacterium tuberculosis, Mtb H37Rv, repeated in Table 5 for the 3D-QSAR models, read-out: MIC
[3] = Mycobacterium tuberculosis, experimental pMIC, Mtb H37Rv, Table 5, read-out: pMIC exp (converted)

SMILES	MIC (Mtb H37Rv (ATCC27294); [1]) [µg/mL]	MIC (Mtb H37Rv (ATCC27294); [2]) [µg/mL]	MIC (Mtb H37Rv (ATCC27294); [3]) [µM]	melting point [°C]	MIC (A. fumigatus (3.5352)) [µg/mL]	MIC (C. tropicalis (ATCC7349)) [µg/mL]	MIC (C. neoformans (2.3201)) [µg/mL]	MIC (C. albicans (ATCC90028)) [µg/mL]	MIC (Mtb H37Rv (ATCC27294); Mycobacterium tuberculosis) [µg/mL]	MIC (Mtb H37Rv (ATCC27294); Mtb H37Rv, MABA assay) [µg/mL]
Cc1ccc(N2C(=O)CSC2c2c[n+]([O-])c3ccccc3[n+]2[O-])cc1 (centres unmarked) [2b, 2-(3′-P-methylphenyl-4′(5H)-thiazolidinone)-quinoxaline-1,4-di-N-oxide]	12.5	12.5	35.4	251 to 253	32 (≈ 90.5 µM)	8 (≈ 22.6 µM)	32 (≈ 90.5 µM)	16 (≈ 45.3 µM)		
COc1ccc(N2C(=O)CSC2c2c[n+]([O-])c3ccccc3[n+]2[O-])cc1 (centres unmarked) [2c, 2-(3′-P-methoxyphenyl-4′(5H)-thiazolidinone)-quinoxaline-1,4-di-N-oxide]	12.5	12.5	33.9	255 to 257	> 64	32 (≈ 86.6 µM)	32 (≈ 86.6 µM)	64 (≈ 173 µM)		
O=C1CSC(c2c[n+]([O-])c3ccccc3[n+]2[O-])N1C1CC1 (centres unmarked) [2f, 2-(3′-cyclopropyl-4′(5H)-thiazolidinone)-quinoxaline-1,4-di-N-oxide]	25	25	82.4	249 to 252	64 (≈ 211 µM)	16 (≈ 52.7 µM)	64 (≈ 211 µM)	32 (≈ 105 µM)		
Cc1ccc2c(c1)[n+]([O-])c(C1SCC(=O)N1c1ccccc1)c[n+]2[O-] (centres unmarked) [2g, 7-CH3-2-(3′-phenyl-4′(5H)-thiazolidinone)-quinoxaline-1,4-di-N-oxide]	12.5	12.5	35.4	255 to 257	32 (≈ 90.5 µM)	16 (≈ 45.3 µM)	32 (≈ 90.5 µM)	32 (≈ 90.5 µM)		
Cc1ccc(N2C(=O)CSC2c2c[n+]([O-])c3ccc(C)cc3[n+]2[O-])cc1 (centres unmarked) [2h, 7-CH3-2-(3′-P-methylphenyl-4′(5H)-thiazolidinone)-quinoxaline-1,4-di-N-oxide]	25	25	68.1	257 to 259	64 (≈ 174 µM)	8 (≈ 21.8 µM)	32 (≈ 87.1 µM)	32 (≈ 87.1 µM)		
COc1ccc(N2C(=O)CSC2c2c[n+]([O-])c3ccc(C)cc3[n+]2[O-])cc1 (centres unmarked) [2i, 7-CH3-2-(3′-P-methoxyphenyl-4′(5H)-thiazolidinone)-quinoxaline-1,4-di-N-oxide]	50	50	131	255 to 259	> 64	32 (≈ 83.5 µM)	16 (≈ 41.7 µM)	64 (≈ 167 µM)		
COc1ccc2c(c1)[n+]([O-])c(C1SCC(=O)N1c1ccccc1)c[n+]2[O-] (centres unmarked) [2l, 7-OMe-2-(3′-phenyl-4′(5H)-thiazolidinone)-quinoxaline-1,4-di-N-oxide]	100	100	271	254 to 258	> 64	32 (≈ 86.6 µM)	> 64	64 (≈ 173 µM)		
COc1ccc2c(c1)[n+]([O-])c(C1SCC(=O)N1c1ccc(C)cc1)c[n+]2[O-] (centres unmarked) [2m, 7-OMe-2-(3′-P-methylphenyl-4′(5H)-thiazolidinone)-quinoxaline-1,4-di-N-oxide]	100	100	261	257 to 259	> 64	64 (≈ 167 µM)	> 64	> 64		
COc1ccc(N2C(=O)CSC2c2c[n+]([O-])c3ccc(OC)cc3[n+]2[O-])cc1 (centres unmarked) [2n, 7-OMe-2-(3′-P-methoxyphenyl-4′(5H)-thiazolidinone)-quinoxaline-1,4-di-N-oxide]	200	200	501	258 to 260	> 64	64 (≈ 160 µM)	> 64	> 64		
COc1ccc2c(c1)[n+]([O-])c(C1SCC(=O)N1c1ccc(F)cc1)c[n+]2[O-] (centres unmarked) [2o, 7-OMe-2-(3′-P-fluorophenyl-4′(5H)-thiazolidinone)-quinoxaline-1,4-di-N-oxide]	50	50	129	255 to 257	64 (≈ 165 µM)	64 (≈ 165 µM)	32 (≈ 82.6 µM)	64 (≈ 165 µM)		
COc1ccc2c(c1)[n+]([O-])c(C1SCC(=O)N1c1ccc(Cl)cc1)c[n+]2[O-] (centres unmarked) [2p, 7-OMe-2-(3′-P-chlorophenyl-4′(5H)-thiazolidinone)-quinoxaline-1,4-di-N-oxide]	50	50	124	253 to 256	> 64	64 (≈ 158 µM)	32 (≈ 79.2 µM)	64 (≈ 158 µM)		
Cc1ccc(N2C(=O)CSC2c2c[n+]([O-])c3ccc(F)cc3[n+]2[O-])cc1 (centres unmarked) [2r, 7-F-2-(3′-P-methylphenyl-4′(5H)-thiazolidinone)-quinoxaline-1,4-di-N-oxide]	12.5	12.5	33.7	249 to 251	8 (≈ 21.5 µM)	8 (≈ 21.5 µM)	16 (≈ 43.1 µM)	8 (≈ 21.5 µM)		
COc1ccc(N2C(=O)CSC2c2c[n+]([O-])c3ccc(F)cc3[n+]2[O-])cc1 (centres unmarked) [2s, 7-F-2-(3′-P-methoxyphenyl-4′(5H)-thiazolidinone)-quinoxaline-1,4-di-N-oxide]	25	25	64.6	251 to 253	8 (≈ 20.7 µM)	8 (≈ 20.7 µM)	8 (≈ 20.7 µM)	8 (≈ 20.7 µM)		
COc1ccc(N2C(=O)CSC2c2c[n+]([O-])c3ccc(Cl)cc3[n+]2[O-])cc1 (centres unmarked) [2x, 7-Cl-2-(3′-P-methoxyphenyl-4′(5H)-thiazolidinone)-quinoxaline-1,4-di-N-oxide]	12.5	12.5	31	252 to 254	8 (≈ 19.8 µM)	8 (≈ 19.8 µM)	8 (≈ 19.8 µM)	8 (≈ 19.8 µM)		
CO[C@H]1/C=C/O[C@@]2(C)Oc3c(C)c(O)c4c(O)c(c(/C=N/N5CCN(C)CC5)c(O)c4c3C2=O)NC(=O)/C(C)=C\C=C\[C@H](C)[C@H](O)[C@@H](C)[C@@H](O)[C@@H](C)[C@H](OC(C)=O)[C@@H]1C [RMP, Rifampicin, reference compound]									0.125	
N=C1NC(=O)/C(=C/c2c[n+]([O-])c3ccccc3[n+]2[O-])S1 [V, 2-(2′-iminothiazolidin-4′-one)-quinoxaline-1,4-di-N-oxide]	> 50									>50
O=C1CSC(c2c[n+]([O-])c3ccccc3[n+]2[O-])N1 (centres unmarked) [VI, 2-(4'(5H)-thiazolone)-quinoxaline-1,4-di-N-oxide]	6.25									
